Marks after values point to notes of the source that are not given here.
Key:
[1] = In vivo pharmacokinetic evaluation in mice (IV and PO); conditions: CD-1 mice
Description: CD-1 mice, after fasting overnight (free drinking), are divided into tail vein (IV) and gavage administration (PO) groups. The tail vein administration group collected 0.1 mL of blood from the orbital venous plexus before administration and 5 minutes, 15 minutes, 0.5 hours, 1 hour, 2 hours, 4 hours, 8 hours, 12 hours, and 24 hours after administration, and sample centrifugation at 4° C. for 5 minutes, and stored at −70° C. for testing. […] The plasma parent drug concentration was determined by LC-MS/MS.

[2] = tested on: DSS-induced acute enteritis mouse model; assay: DSS-induced acute enteritis mouse model (body weight, DAI score, colon length); format: in vivo, C57BL/6 mice
Description: Grouping and modeling: One day before the start of the experiment, all C57BL/6 mice were ear-labeled and recorded, and the animals with appropriate weight and normal status were selected for grouping (Sham group, vehicle group and embodiment 33 group). 10 animals per group; 3.5% dextran sulfate sodium salt (DSS, MP, molecular weight 36000-50000) prepared with sterile water is loaded into the drinking bottle in the vehicle and the 33 testing groups of rearing cages in the embodiment (100 mL per cage, replace the 3.5% DSS solution after 2-3 days with freshly prepared solution), and the animals in the vehicle and the 33 testing groups of the embodiment are free to drink for 10 consecutive days. The Sham group drank the normal water not containing DSS. Embodiment 33 compound is administered orally BID.
1) Body Weight Change (%)=BWi/BW0×100%, BWi is the average body weight of mice in the group on a given day, BW0 is the average body weight of mice before the start of treatment.
2) DAI score: The Disease Activity Index (DAI) scoring criteria are as follows:
3) Colon length: After the last dose, all animals were euthanized with CO2 and dissected. The entire colon (anus-cecum section) was isolated, moistened with ice-cold saline, smoothed and laid flat. On the dissecting board, without applying external force to stretch, use a digital vernier caliper to measure the length of the colon and record it, and take photos for retention.

IL-18 = IL-18 cytokine in LPS-induced sepsis mouse model; format: in vivo, C57BL/6J mice; conditions: for IL-18: given 30 minutes before LPS (10 mg/kg i.p.), serum 2 hours after LPS
Description: The purpose of this study was to investigate and evaluate the inhibitory effect of the test compound on […] and IL-18 cytokine production in a mouse model of lipopolysaccharide (LPS)-induced sepsis.
6-8 weeks female C57BL/6J mice, randomized, 5 animals in the Naïve group, and the rest of the groups (vehicle group, 15 mg/kg group with embodiment 33 compound, 50 mg/kg group with embodiment 33 compound and 150 mg/kg group with embodiment 33 compound, wherein 15 mg/kg, 50 mg/kg and 150 mg/kg is the dosage of embodiment 33, mg/kg is referred to as mpk) 10 animals per group. Among them, the Naïve group was not stimulated with LPS, and the 10 mice in each group were intraperitoneally injected with LPS (10 mg/kg) to induce sepsis model in the mouse. The vehicle (corresponding to the vehicle group) and the test compound (corresponding to the 15mpk group of Example 33, the 50mpk group of Example 33 and the 150mpk group of Example 33 respectively) were administered 30 minutes before LPS stimulation. 2 hours after LPS stimulation, the mice were euthanized, and whole blood was collected from the heart and placed in EP tubes, left to stand at room temperature for 1 hour, and centrifuged at 8000 rpm for 10 minutes to collect serum for measurement of cytokines IL-10 and IL-18.
After the kit is taken out of the refrigerator, it should be equilibrated at room temperature (25-28° C.) for 20 minutes; the remaining reagents should be stored at 4° C. immediately after each test.
Prepare an appropriate amount of standard diluent: dilute the standard diluent (5×) to 1× with double-distilled or deionized water. For example, add 10 mL of standard diluent (5×) to 40 mL of water and mix well to obtain a 1× standard. Diluent.
Prepare an appropriate amount of washing liquid: Dilute the washing liquid (20×) with double-distilled or deionized water to 1×. For example, add 10 mL of washing liquid (20×) to 190 mL of water and mix well to obtain a 1×washing liquid.
Standard preparation: Add the standard diluent to one bottle of standard according to the volume (0.5 mL) marked on the standard label, incubate at room temperature for 15 minutes, then mix gently and pipet several times with a pipette to completely dissolve the standard. The final concentration of the standard reaches 1500 pg/mL. Take […] 1.5 mL centrifuge tubes, add 250 μL of standard diluent to each tube in advance, and perform dilutions of the standard to obtain a total of 1500, 750, 375, 187.5, 93.75, 46.875, and 23.4375 pg/mL. standard concentration, and finally add the diluted standard to the pre-coated plate wells in sequence, and add the standard diluent directly as a concentration of 0 pg/mL, for a total of 8 standard concentrations. […]

[3] = 50 mpk P.O Bid, 3.5% DSS, day 11, n = 10

Cc1nc(N[C@@H]2CCCC[C@H]2O)nnc1-c1ccc(C(F)(F)F)cc1O [Embodiment 33]
F ([1]; PO, 20 mg/kg): 98.0% | AUC ([1]; mouse, plasma, IV, 3 mg/kg): 4600 ng·h/mL | clearance ([1]; mouse, plasma, IV, 3 mg/kg): 10.9 mL/min/kg | half-life ([1]; mouse, plasma, IV, 3 mg/kg): 4.89 h | Vd ([1]; mouse, plasma, IV, 3 mg/kg, read-out: Vss): 2.6 L/kg | AUC ([1]; mouse, plasma, PO, 20 mg/kg): 30000 ng·h/mL | Cmax ([1]; mouse, plasma, PO, 20 mg/kg): 8520 ng/mL | half-life ([1]; mouse, plasma, PO, 20 mg/kg): 3.6 h | curative effect on animals with DSS-induced acute enteritis (IBD) ([2]; 50mpk P.O Bid): significant curative effect | Day 11 weight change (%) [2, 3]: 88.09% | Rate of body weight loss (%) [2, 3]: 11.91%** | DAI score ([2]; 50 mpk P.O Bid, Day 3): 0.00 | DAI score ([2]; 50 mpk P.O Bid, Day 5): 2.60 ± 0.45 | DAI score ([2]; 50 mpk P.O Bid, Day 7): 4.40 ± 0.6 | DAI score ([2]; 50 mpk P.O Bid, Day 9): 6.20 ± 0.68 | DAI score ([2]; 50 mpk P.O Bid, Day 11): 7.80 ± 0.63 | Colon length ([2]; 50 mpk P.O Bid, after the last dose, n = 10): 58.27 ± 1.48 mm | IL-18 (IL-18; 15 mpk): 560.5 ± 46.39 | IL-18 (IL-18; 50 mpk): 320.1 ± 29.69 | IL-18 (IL-18; 150 mpk): 216.2 ± 9.238 | inhibitory effect on IL-18 compared with the Vehicle group (IL-18; two doses of 50 mg/kg and 150 mg/kg): significant inhibitory effect
